Data as given in ChEMBL document CHEMBL1201862, “PubChem BioAssay data set” (2004).
Where “and” joins values, the source holds several entries; their conditions need not be identical. Identical values can stand only once. Calls of active or inactive are those of the source.

Tests used:
[1] = biological target: T1, High affinity choline transporter 1 (Homo sapiens, UniProt Q9GZV3); test: CHT inhibitors, dose response, cell-based, 5-point CRC, membrane potential dye (AID 504840); format: functional
T1 sequence (Q9GZV3 whole entry): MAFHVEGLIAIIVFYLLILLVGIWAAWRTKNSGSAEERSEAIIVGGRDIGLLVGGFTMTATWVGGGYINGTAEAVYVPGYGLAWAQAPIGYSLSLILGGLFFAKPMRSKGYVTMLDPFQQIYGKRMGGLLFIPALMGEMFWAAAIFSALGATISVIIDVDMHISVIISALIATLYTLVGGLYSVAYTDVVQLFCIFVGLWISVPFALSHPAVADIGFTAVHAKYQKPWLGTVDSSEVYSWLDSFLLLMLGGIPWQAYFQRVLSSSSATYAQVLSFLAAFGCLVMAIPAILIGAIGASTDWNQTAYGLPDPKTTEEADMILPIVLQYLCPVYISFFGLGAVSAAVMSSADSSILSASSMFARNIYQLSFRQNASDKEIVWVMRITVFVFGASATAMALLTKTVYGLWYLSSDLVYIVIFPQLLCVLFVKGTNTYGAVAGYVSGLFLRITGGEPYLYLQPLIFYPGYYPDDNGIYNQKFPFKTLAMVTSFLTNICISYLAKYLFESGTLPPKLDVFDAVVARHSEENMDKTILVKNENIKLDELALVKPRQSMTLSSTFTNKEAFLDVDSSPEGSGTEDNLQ

[2] = biological target: T2, Polyadenylate-binding protein 1 (Homo sapiens, UniProt P11940); test: PABP1 MLLE–PAM2 interaction inhibitors, dose response, miRNA deadenylation inhibitor project, biochemical, fluorescence polarization, Cy5-PAM2 peptide, secondary (AID 602260); format: functional; details: read-out: IC50_Mean
[3] = biological target: T2, Polyadenylate-binding protein 1; test: PABP1 MLLE–PAM2 binding inhibitor potency, dose response, biochemical, fluorescence polarization, FITC-PAM2 peptide (AID 602259); format: functional; details: read-out: IC50_Mean
[4] = Luminescence Cell-Based Dose Retest to Confirm Inhibitors of Cancer Stem Cells. [Related pubchem assays (depositor defined):AID2717, AID2721]; format: functional; details: Homo sapiens
[5] = biological target: Heat shock protein HSP 90-alpha (Homo sapiens, UniProt P07900); format: functional, organism-based
[6] = microbe, parasite or virus in culture; format: functional; details: Mycobacterium tuberculosis
Protein RecA = biological target: T3, Protein RecA (Mycobacterium tuberculosis, UniProt P9WHJ3); test: Fluorescence Cell-Free Homogeneous Dose Retest to Identify Inhibitors of RecA-Intein Splicing Activity. [Related pubchem assays (depositor defined):AID2097, AID2223, AID489010, AID492950]; format: functional
T3 sequence (P9WHJ3 whole entry): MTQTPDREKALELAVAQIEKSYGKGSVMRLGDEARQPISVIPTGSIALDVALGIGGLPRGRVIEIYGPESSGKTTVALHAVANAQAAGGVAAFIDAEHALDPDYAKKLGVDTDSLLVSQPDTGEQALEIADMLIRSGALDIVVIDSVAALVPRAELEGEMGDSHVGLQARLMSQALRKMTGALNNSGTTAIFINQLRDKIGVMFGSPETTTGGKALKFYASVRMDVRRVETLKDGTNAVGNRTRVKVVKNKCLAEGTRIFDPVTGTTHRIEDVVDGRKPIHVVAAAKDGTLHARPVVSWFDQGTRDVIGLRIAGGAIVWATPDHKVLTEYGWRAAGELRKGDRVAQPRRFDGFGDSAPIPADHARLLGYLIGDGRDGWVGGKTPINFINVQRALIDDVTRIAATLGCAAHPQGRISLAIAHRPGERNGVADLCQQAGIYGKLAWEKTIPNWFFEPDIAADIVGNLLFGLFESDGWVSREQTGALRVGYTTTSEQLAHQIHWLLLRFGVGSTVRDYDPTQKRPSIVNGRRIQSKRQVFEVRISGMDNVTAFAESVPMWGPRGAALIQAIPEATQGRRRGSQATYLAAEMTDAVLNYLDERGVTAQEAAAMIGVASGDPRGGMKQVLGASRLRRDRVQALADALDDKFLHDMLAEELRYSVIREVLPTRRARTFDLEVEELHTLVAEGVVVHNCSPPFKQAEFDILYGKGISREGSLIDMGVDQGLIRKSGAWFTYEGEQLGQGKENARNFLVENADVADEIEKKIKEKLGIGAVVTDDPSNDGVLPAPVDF

[7] = biological target: T4, Replicative DNA helicase DnaB (Mycobacterium tuberculosis, UniProt P9WMR3); test: DnaB intein splicing inhibitors, dose response, biochemical, cell-free fluorescence (AID 449749); format: functional
T4 sequence (P9WMR3 whole entry): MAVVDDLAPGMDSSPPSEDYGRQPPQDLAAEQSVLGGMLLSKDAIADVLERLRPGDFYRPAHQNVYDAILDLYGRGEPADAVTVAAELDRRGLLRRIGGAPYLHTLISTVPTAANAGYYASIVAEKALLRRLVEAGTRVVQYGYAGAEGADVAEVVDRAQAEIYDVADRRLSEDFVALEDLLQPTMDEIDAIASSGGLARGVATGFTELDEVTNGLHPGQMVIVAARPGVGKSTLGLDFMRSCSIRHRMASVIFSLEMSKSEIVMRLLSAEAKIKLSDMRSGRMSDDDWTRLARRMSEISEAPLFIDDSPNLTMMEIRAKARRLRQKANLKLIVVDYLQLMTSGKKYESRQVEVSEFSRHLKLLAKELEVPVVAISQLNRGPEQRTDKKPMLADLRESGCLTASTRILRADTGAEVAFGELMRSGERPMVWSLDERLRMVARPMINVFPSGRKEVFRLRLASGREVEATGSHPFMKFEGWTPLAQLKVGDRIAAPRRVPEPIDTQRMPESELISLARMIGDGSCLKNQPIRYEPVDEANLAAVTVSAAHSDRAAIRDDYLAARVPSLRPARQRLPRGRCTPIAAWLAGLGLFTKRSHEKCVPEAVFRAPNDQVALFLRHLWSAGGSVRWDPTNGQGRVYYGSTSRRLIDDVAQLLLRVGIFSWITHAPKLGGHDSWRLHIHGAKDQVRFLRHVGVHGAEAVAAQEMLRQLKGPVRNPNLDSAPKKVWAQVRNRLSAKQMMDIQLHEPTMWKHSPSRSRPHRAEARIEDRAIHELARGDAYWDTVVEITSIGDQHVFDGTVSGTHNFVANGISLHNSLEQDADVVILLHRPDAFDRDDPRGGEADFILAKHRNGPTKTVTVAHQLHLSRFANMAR

P388/ADR = test: cells; format: functional; details: Mus musculus
SN12K1 = test: cells; format: functional; details: Homo sapiens
P388 = test: cells; format: functional; details: Mus musculus
Exodeoxyribonuclease V = biological target: T5, Exodeoxyribonuclease V (Escherichia coli (strain K12), UniProt P04993+P07648+P08394); test: E. coli RecBCD inhibitors, dose response, counter-screen for AddAB inhibitor project, absorbance, V66 E. coli, mutant T4 phage (AID 492957); format: functional, cell-based, Escherichia coli str. K-12 substr. MG1655
T5 sequence (P04993 whole entry): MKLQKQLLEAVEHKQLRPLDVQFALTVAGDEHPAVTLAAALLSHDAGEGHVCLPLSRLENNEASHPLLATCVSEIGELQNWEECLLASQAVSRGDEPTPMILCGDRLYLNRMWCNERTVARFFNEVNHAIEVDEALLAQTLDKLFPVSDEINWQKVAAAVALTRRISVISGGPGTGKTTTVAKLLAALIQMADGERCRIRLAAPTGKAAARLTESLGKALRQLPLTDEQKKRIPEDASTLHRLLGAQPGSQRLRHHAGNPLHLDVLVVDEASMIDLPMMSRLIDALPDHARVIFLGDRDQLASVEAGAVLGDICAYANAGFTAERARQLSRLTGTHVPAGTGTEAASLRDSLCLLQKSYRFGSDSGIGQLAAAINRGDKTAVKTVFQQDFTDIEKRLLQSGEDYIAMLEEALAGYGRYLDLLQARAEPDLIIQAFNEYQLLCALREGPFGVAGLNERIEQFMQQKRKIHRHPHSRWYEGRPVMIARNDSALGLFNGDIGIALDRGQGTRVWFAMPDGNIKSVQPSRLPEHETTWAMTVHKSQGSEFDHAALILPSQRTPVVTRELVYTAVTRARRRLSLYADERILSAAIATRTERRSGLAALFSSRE
T5 sequence (P07648 whole entry): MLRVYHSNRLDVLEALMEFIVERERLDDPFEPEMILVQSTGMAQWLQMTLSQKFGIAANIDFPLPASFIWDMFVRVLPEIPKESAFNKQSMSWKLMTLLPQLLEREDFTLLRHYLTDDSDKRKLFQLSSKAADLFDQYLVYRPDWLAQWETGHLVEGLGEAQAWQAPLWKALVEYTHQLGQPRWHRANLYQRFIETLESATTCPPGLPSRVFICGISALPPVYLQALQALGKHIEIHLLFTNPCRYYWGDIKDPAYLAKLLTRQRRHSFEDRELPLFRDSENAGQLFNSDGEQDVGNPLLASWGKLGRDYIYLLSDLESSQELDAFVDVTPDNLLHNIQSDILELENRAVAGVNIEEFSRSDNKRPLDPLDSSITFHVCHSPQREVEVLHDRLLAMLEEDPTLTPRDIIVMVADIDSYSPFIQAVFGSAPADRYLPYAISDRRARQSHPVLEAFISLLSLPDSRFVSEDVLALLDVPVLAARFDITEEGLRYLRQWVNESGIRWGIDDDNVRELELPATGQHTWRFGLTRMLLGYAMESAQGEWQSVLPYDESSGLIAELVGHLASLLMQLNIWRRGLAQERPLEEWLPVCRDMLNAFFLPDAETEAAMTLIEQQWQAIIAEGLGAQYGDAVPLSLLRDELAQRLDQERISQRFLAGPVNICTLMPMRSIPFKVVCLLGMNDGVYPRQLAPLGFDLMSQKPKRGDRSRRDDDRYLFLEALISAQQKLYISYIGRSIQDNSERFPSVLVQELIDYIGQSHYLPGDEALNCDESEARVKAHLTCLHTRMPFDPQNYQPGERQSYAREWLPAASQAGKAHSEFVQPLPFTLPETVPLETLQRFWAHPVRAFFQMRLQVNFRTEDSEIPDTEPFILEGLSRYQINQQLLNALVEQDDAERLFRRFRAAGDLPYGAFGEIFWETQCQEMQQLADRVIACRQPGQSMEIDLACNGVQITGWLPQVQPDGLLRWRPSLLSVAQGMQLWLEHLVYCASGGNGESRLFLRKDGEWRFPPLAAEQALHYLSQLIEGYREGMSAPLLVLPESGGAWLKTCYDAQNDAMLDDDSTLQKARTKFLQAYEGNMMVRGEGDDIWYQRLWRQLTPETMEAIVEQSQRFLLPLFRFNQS
T5 sequence (P08394 whole entry): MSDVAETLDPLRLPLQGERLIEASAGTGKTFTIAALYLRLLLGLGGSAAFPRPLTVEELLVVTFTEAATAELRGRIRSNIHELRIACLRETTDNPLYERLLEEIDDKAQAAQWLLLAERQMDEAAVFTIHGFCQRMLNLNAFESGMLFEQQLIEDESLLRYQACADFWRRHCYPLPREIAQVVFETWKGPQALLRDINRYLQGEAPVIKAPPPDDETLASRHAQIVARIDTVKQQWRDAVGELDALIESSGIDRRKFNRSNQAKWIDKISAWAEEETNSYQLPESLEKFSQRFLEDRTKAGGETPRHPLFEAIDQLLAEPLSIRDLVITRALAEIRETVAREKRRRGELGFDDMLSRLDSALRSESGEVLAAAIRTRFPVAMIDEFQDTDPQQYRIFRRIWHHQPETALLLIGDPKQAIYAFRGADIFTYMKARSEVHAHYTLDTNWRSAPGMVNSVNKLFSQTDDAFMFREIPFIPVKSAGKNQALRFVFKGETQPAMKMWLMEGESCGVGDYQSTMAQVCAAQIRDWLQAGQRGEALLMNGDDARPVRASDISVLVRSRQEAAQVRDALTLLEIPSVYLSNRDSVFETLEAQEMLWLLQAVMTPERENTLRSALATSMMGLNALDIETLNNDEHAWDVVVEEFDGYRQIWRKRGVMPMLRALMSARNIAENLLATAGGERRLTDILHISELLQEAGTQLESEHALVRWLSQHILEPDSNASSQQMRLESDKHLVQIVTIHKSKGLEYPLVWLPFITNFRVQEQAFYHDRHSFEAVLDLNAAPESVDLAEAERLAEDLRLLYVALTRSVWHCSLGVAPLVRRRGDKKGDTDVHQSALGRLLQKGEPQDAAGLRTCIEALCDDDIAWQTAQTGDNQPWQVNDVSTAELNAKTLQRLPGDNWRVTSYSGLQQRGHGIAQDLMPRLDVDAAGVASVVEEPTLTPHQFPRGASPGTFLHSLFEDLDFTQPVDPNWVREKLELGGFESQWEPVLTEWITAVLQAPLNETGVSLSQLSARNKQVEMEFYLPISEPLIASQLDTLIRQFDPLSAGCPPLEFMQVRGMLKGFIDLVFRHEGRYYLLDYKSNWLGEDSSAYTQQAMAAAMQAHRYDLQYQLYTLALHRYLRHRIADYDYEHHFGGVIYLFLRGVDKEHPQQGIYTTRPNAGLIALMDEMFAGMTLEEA

T2 sequence (P11940 whole entry): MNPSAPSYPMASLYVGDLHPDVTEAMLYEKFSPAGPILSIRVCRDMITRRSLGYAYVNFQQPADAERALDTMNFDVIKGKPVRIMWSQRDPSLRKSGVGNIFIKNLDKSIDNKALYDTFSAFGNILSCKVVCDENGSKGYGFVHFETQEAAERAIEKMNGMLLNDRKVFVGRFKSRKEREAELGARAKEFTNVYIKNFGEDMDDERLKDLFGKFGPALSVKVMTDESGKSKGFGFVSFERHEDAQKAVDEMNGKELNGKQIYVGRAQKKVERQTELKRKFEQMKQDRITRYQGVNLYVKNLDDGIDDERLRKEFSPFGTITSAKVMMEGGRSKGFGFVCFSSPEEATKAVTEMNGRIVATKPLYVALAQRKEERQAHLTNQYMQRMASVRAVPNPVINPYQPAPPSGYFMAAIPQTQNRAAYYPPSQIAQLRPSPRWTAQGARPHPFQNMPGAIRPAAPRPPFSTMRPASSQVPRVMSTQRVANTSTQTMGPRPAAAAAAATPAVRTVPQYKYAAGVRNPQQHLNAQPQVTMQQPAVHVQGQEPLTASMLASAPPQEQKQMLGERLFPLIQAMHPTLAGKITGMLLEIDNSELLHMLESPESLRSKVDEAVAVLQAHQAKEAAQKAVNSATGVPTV

Cc1cccc(C2c3[nH]c4ccccc4c3CCN2C(=O)c2cc3c(nc2O)CCCC3)n1 (configuration not stated)
IC50 [1]: 11.2 µM (active)

Cc1ccc(S(=O)(=O)Oc2ccc(/C=C3/C(=N)N4C(=NC3=O)SN=C4S(C)(=O)=O)cc2)cc1
IC50 [1]: 13.8 µM (active)

O=C(NC(=S)Nc1ccccc1Cl)c1cncc(Br)c1
IC50 [2]: > 66 µM (inactive) | IC50 [3]: > 66 µM (inactive)

Oc1cccc(C(O)CNCc2ccc(OCc3ccc(Cl)cc3Cl)cc2)c1 (configuration not stated)
AC50 [4]: 3.69 µM (active) | IC50 [1]: 1.82 µM (active)

O=C(OCC(=O)C12CC3CC(CC(C3)C1)C2)c1ccc(O)cc1O
AC50 [5]: 24.5 µM (active) | CC50 [6]: > 40 µM (active)

COc1ccc(OC)c(NC(=O)Nc2ccc(O)c3ccccc23)c1
AC50 [5]: 0.434 µM (active) | EC50 (Protein RecA): 152 nM (active) | AC50 [7]: 11.5 µM (active)

C=CCn1cc(C(=O)NCCCN(CC)CC)c(=O)c2cc(S(=O)(=O)N3CCC(C)CC3)ccc21
IC50 [1]: 13.2 µM (active)

O=C(/C=C/c1ccccc1)CCN1CCOCC1
GI50 (P388/ADR): 2.43 µM (inactive) | AC50 [5]: 2.94 µM (active) | GI50 (SN12K1): 16.5 µM (inactive) | GI50 (P388): 2.81 µM (inactive)

CCc1cn([C@H]2C[C@H](O)[C@@H](CO)O2)c(=O)[nH]c1=O [EDOXUDINE]
IC50 (Exodeoxyribonuclease V): > 119 µM (inactive) and > 118 µM (inactive)
